# Reference: patent publication US20260265233A1, “BENZOTHIOPHENE DERIVATIVES AS RXFP1 AGONISTS” (BRISTOL-MYERS SQUIBB COMPANY, priority 2021, published 2026)
# Target: T1, human RXFP1 (Homo sapiens, UniProt Q9HBX9)
# T1 construct: expressed in transfected cells
# T1 sequence (Q9HBX9 1-757): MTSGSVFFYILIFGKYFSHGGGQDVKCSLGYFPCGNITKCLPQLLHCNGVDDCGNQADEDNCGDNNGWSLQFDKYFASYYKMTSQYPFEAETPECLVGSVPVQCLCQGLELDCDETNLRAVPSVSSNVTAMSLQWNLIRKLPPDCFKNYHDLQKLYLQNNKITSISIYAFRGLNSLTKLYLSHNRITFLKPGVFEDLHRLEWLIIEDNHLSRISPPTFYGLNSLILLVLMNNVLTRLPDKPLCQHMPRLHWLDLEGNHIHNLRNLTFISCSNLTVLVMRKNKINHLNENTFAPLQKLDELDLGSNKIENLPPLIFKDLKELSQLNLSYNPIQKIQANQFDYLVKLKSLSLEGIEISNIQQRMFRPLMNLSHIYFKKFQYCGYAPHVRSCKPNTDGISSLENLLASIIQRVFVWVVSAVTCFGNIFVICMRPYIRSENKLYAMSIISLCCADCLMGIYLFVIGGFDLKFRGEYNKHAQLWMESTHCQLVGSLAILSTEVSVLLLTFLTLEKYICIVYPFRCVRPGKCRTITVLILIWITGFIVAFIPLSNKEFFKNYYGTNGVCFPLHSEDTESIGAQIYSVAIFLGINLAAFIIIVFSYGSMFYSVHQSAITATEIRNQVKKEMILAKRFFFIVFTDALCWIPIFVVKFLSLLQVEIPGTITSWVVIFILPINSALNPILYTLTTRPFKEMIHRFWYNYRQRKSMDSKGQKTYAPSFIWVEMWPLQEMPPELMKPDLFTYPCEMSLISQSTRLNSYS
# Assay: hRXFP1 HEK293 cAMP assay (HTRF)
# Format: cell-based
# Settings: HEK293 cells stably expressing human RXFP1; 30 min at rt; intracellular cAMP by HTRF
# How it was run: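 HEK293 cells stably expressing human RXFP1 treated 30 min at rt with compound (0.010 nM to 50 μM, 2% DMSO) in HBSS/HEPES buffer with 0.5 mM IBMX. Intracellular cAMP measured by HTRF (665/590 nm ratio) against a cAMP standard curve; potency fitted by 4-parameter logistic.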
row,Structure (SMILES),EC50 [nM]
1,"COc1ccc(N2CCC(NCCS(C)(=O)=O)C2)cc1C(=O)Nc1c(C(=O)Nc2ccc(F)c(C(F)(F)F)c2)sc2cc(C(F)(F)F)ccc12 (stereo not shown) [Example 67, N-(4-fluoro-3-(trifluoromethyl)phenyl)-3-(2-methoxy-5-(3-((2-(methylsulfonyl)ethyl)amino)pyrrolidin-1-yl)benzamido)-6-(trifluoromethyl) benzo[b] thiophene-2-carboxamide]",1290
2,"COc1ccc(C2=NOC3CC(NC(=O)CO)CC23)cc1C(=O)Nc1c(C(=O)Nc2ccc(F)c(C(F)(F)F)c2)sc2cc(C(F)(F)F)ccc12 (single isomer, unassigned) [Example 263, N-[4-fluoro-3-(trifluoromethyl)phenyl]-3-{5-[5-(2-hydroxyacetamido)-3aH,4H,5H,6H, 6aH-cyclopenta[d] [1,2]oxazol-3-yl]-2-methoxy-benzamido}-6-(trifluoromethyl)-1-benzothiophene-2-carboxamide]",122
3,"COc1ccc(C2CC3CCC(C2)N3CC(N)=O)cc1C(=O)Nc1c(C(=O)Nc2ccc(F)c(C(F)(F)F)c2)sc2cc(C(F)(F)F)ccc12 (stereo not shown) [Example 192, 3-(5-(8-(2-amino-2-oxoethyl)-8-azabicyclo[3.2.1]octan-3-yl)-2-methoxy-benzamido)-N-(4-fluoro-3-(trifluoromethyl)phenyl)-6-(trifluoromethyl) benzo[b] thiophene-2-carboxamide]",889
4,"COc1ccc(C2=NOC3CN(C(=O)CO)CC23)cc1C(=O)Nc1c(C(=O)Nc2ccc(F)c(C(F)(F)F)c2)sc2cc(C(F)(F)F)ccc12 (single isomer, unassigned) [Example 243, N-(4-fluoro-3-(trifluoromethyl)phenyl)-3-(5-(5-(2-hydroxyacetyl)-3a,5,6,6a-tetrahydro-4H-pyrrolo[3,4-d]isoxazol-3-yl)-2-methoxy-benzamido)-6-(trifluoromethyl) benzo[b] thiophene-2-carboxamide]",1050
5,"COc1ccc(C#CC(C)(C)O)cc1C(=O)Nc1c(C(=O)Nc2ccc(F)c(C(F)(F)F)c2)sc2cc(C(F)(F)F)ccc12 [Example 124, N-(4-fluoro-3-(trifluoromethyl)phenyl)-3-(5-(3-hydroxy-3-methylbut-1-yn-1-yl)-2-methoxybenz-amido)-6-(trifluoromethyl) benzo[b] thiophene-2-carboxamide]",560
6,"COc1ccc(C2=NOC3CC(C(C)(C)O)CC23)cc1C(=O)Nc1c(C(=O)Nc2ccc(F)c(C(F)(F)F)c2)sc2cc(C(F)(F)F)ccc12 (single isomer, unassigned) [Example 56, N-(4-fluoro-3-(trifluoromethyl)phenyl)-3-(5-(5-(2-hydroxypropan-2-yl)-3a, 5,6,6a-tetrahydro-4H-cyclopenta[d]isoxazol-3-yl)-2-methoxybenzamido)-6-(trifluoromethyl)benzo[b]thiophene-2-carboxamide]",9.5
7,"COc1ccc(C(=O)N2CC3(C2)CS(=O)(=O)C3)cc1C(=O)Nc1c(C(=O)Nc2ccc(F)c(C(F)(F)F)c2)sc2cc(C3CC3)ncc12 [Example 29, 6-cyclopropyl-3-(5-(2,2-dioxido-2-thia-6-azaspiro [3.3]heptane-6-carbonyl)-2-methoxybenzamido)-N-(4-fluoro-3-(trifluoromethyl)phenyl) thieno [3,2-c]pyridine-2-carboxamide]",1340
8,"COc1ccc(-c2cccc(C(NC(=O)C3CCOCC3)C(=O)O)c2)cc1C(=O)Nc1c(C(=O)Nc2ccc(F)c(C(F)(F)F)c2)sc2cc(C(F)(F)F)ccc12 (single isomer, unassigned) [Example 25, 2-(3′-((2-((4-fluoro-3-(trifluoromethyl)phenyl)carbamoyl)-6-(trifluoromethyl)benzo[b]thiophen-3-yl)carbamoyl)-4′-methoxy-[1, 1′-biphenyl]-3-yl)-2-(tetrahydro-2H-pyran-4-carboxamido) acetic acid]",3.8
9,"COc1ncc(N2CCS(=O)(=O)CC2)cc1C(=O)Nc1c(C(=O)Nc2ccc(F)c(C(F)(F)F)c2)sc2cc(C(F)(F)F)ccc12 [Example 12, 5-(1,1-dioxidothiomorpholino)-N-(2-((4-fluoro-3-(trifluoromethyl)phenyl)carbamoyl)-6-(trifluoromethyl)benzo[b]thiophen-3-yl)-2-methoxynicotinamide]",2130

# The remaining lines, values ahead:
row,EC50 [nM],Structure (SMILES)
1,662,"COc1ccc(N2CCCC(CC(=O)O)C2)cc1C(=O)Nc1c(C(=O)Nc2ccc(F)c(C(F)(F)F)c2)sc2cc(C(F)(F)F)ccc12 (single isomer, unassigned) [Example 65, 2-(1-(3-((2-((4-fluoro-3-(trifluoromethyl)phenyl)carbamoyl)-6-(trifluoromethyl)benzo[b]thiophen-3-yl)carbamoyl)-4-methoxyphenyl)piperidin-3-yl)acetic acid]"
2,469,"COc1ccc(C2CCCNC2)cc1C(=O)Nc1c(C(=O)Nc2ccc(F)c(C(F)(F)F)c2)sc2cc(C(F)(F)F)ccc12 (single isomer, unassigned) [Example 77, N-(4-fluoro-3-(trifluoromethyl)phenyl)-3-(2-methoxy-5-(piperidin-3-yl)benzamido)-6-(trifluoromethyl) benzo[b] thiophene-2-carboxamide]"
3,835,"CNC(=O)CN1CCCC(c2ccc(OC)c(C(=O)Nc3c(C(=O)Nc4ccc(F)c(C(F)(F)F)c4)sc4cc(C(F)(F)F)ccc34)c2)C1 (stereo not shown) [Example 78, N-(4-fluoro-3-(trifluoromethyl)phenyl)-3-(2-methoxy-5-(1-(2-(methylamino)-2-oxoethyl)piperidin-3-yl)benzamido)-6-(trifluoromethyl) benzo[b] thiophene-2-carboxamide]"
4,870,"COc1ccc(C2CCCN(C(=O)CN(C)C)C2)cc1C(=O)Nc1c(C(=O)Nc2ccc(F)c(C(F)(F)F)c2)sc2cc(C(F)(F)F)ccc12 (stereo not shown) [Example 95, 3-(5-(1-(dimethylglycyl)piperidin-3-yl)-2-methoxy-benzamido)-N-(4-fluoro-3-(trifluoromethyl)phenyl)-6-(trifluoromethyl) benzo[b] thiophene-2-carboxamide]"
5,1040,"COc1ccc(C2CCCN(CC(N)=O)CC2)cc1C(=O)Nc1c(C(=O)Nc2ccc(F)c(C(F)(F)F)c2)sc2cc(C(F)(F)F)ccc12 (single isomer, unassigned) [Example 73, 3-(5-(1-(2-amino-2-oxoethyl)azepan-4-yl)-2-methoxy-benzamido)-N-(4-fluoro-3-(trifluoromethyl)phenyl)-6-(trifluoromethyl) benzo[b] thiophene-2-carboxamide]"
6,2250,"COc1ccc(C2CC2C(=O)N2CC(C(C)(C)O)C2)cc1C(=O)Nc1c(C(=O)Nc2ccc(F)c(C(F)(F)F)c2)sc2cc(C(F)(F)F)ccc12 (stereo not shown) [Example 169, N-[4-fluoro-3-(trifluoromethyl)phenyl]-3-(5-{2-[3-(2-hydroxypropan-2-yl)azetidine-1-carbonyl]cyclopropyl}-2-methoxy-benzamido)-6-(trifluoromethyl)-1-benzothiophene-2-carboxamide]"
7,420,"COc1ccc(C2CCC(O)CC2)cc1C(=O)Nc1c(C(=O)Nc2ccc(F)c(C(F)(F)F)c2)sc2cc(C(F)(F)F)ccc12 (single isomer, unassigned) [Example 75, N-(4-fluoro-3-(trifluoromethyl)phenyl)-3-(5-(4-hydroxycyclo-hexyl)-2-methoxy-benzamido)-6-(trifluoromethyl) benzo[b] thiophene-2-carboxamide]"
8,593,"COc1ccc(N2CCCC(NCC(N)=O)C2)cc1C(=O)Nc1c(C(=O)Nc2ccc(F)c(C(F)(F)F)c2)sc2cc(C(F)(F)F)ccc12 (stereo in doubt) [Example 112, (R)-3-(5-(3-((2-amino-2-oxoethyl)amino)piperidin-1-yl)-2-methoxy-benzamido)-N-(4-fluoro-3-(trifluoromethyl)phenyl)-6-(trifluoromethyl) benzo[b] thiophene-2-carboxamide]"
9,617,"COc1ccc(C2CC2CO)cc1C(=O)Nc1c(C(=O)Nc2ccc(F)c(C(F)(F)F)c2)sc2cc(C(F)(F)F)ccc12 (stereo not shown) [Example 49, N-(4-fluoro-3-(trifluoromethyl)phenyl)-3-(5-(2-(hydroxymethyl)cyclopropyl)-2-methoxybenzamido)-6-(trifluoromethyl) benzo[b]thiophene-2-carboxamide]"
10,1140,"COc1ccc(C(=O)N2CCC[C@@H](O)C2)cc1C(=O)Nc1c(C(=O)Nc2ccc(F)c(C(F)(F)F)c2)sc2cc(C(F)(F)F)ccc12 [Example 219, (R)-N-(4-fluoro-3-(trifluoromethyl)phenyl)-3-(5-(3-hydroxy-piperidine-1-carbonyl)-2-methoxy-benzamido)-6-(trifluoromethyl) benzo[b] thiophene-2-carboxamide]"
